The text below walks through data of US8513227B2, “Inhibition of inflammatory cytokine production with tanshinones” (The Feinstein Institute for Medical Research, priority 2006, dated 2013).

Experiment [1] has as its system HMGB1. The experiment can be described thus: LPS-induced HMGB1 release in RAW 264.7 macrophage cultures (western blot). In kind it is cell-based, murine. The source says: Cell culture. […] Rendon-Mitchell et al. 2003). Murine macrophages were pre-cultured in RPMI 1640 medium (Gibco BRL, Grand Island, N.Y.) supplemented with 10% fetal bovine serum (FBS) and 2 mmol/L glutamine. Human peripheral blood mononuclear cells (HuPBMCs) were isolated from the blood of healthy donors (Long Island Blood Bank, Melville, N.Y.) by density gradient centrifugation through Ficoll (Ficoll-Paque PLUS, Pharmacia, Piscataway, N.J.), and cultured in RPMI 1640 supplemented with 10% heat-inactivated human serum/0.2 mM L-glutamine as previously described (Rendon-Mitchell et al. 2003). LPS stimulation. Adherent macrophages or monocytes were gently washed with, and cultured in, serum-free OPTI-MEM I medium two hours before stimulation with bacterial endotoxin (lipopolysaccharide, LPS, E. coli 0111:B4, Sigma-Aldrich). […] Rendon-Mitchell et al. 2003; Wang et al. 1999). HMGB1 western blotting analysis. The levels of HMGB1 in the culture medium or serum were determined by western blotting analysis as previously described (Chen et al. 2004; Rendon-Mitchell et al. 2003; Wang et al. 1999). The relative band intensity was quantified using NIH image 1.59 software to determine HMGB1 levels with reference to standard curves generated with purified HMGB1.

The subject of experiment [2] is HMGB1. The experiment can be described thus: LPS-induced HMGB1 release in primary human peripheral blood mononuclear cells. It is filed as cell-based. Conditions: FIG. 2B. The procedure:
(§1) Cell culture. Murine macrophage-like RAW 264.7 cells were obtained from the American Type Culture Collection (ATCC, Rockville, Md.), and primary peritoneal macrophages were isolated from Balb/C mice (male, 7-8 weeks, 20-25 grams) at 2-3 days after intraperitoneal injection of 2 ml thioglycollate broth (4%) as previously described (Chen et al. 2004; Rendon-Mitchell et al. 2003). Murine macrophages were pre-cultured in RPMI 1640 medium (Gibco BRL, Grand Island, N.Y.) supplemented with 10% fetal bovine serum (FBS) and 2 mmol/L glutamine. […]
(§2) LPS stimulation. […] At 16 hours after LPS stimulation, levels of HMGB1 in the culture medium were determined as previously described (Chen et al. 2004; Rendon-Mitchell et al. 2003; Wang et al. 1999).
(§3) HMGB1 western blotting analysis. The levels of HMGB1 in the culture medium or serum were determined by western blotting analysis as previously described (Chen et al. 2004; Rendon-Mitchell et al. 2003; Wang et al. 1999). The relative band intensity was quantified using NIH image 1.59 software to determine HMGB1 levels with reference to standard curves generated with purified HMGB1.

Another experiment deals with nitric oxide. The experiment in a line: LPS-induced nitric oxide release (Griess reaction). It is filed as cell-based, murine. As to conditions: 100 μM, FIG. 2A lower panel. The procedure:
LPS stimulation. Adherent macrophages or monocytes were gently washed with, and cultured in, serum-free OPTI-MEM I medium two hours before stimulation with bacterial endotoxin (lipopolysaccharide, LPS, E. coli 0111:B4, Sigma-Aldrich). At 16 hours after LPS stimulation, levels of HMGB1 in the culture medium were determined as previously described (Chen et al. 2004; Rendon-Mitchell et al. 2003; Wang et al. 1999).
(§4) Nitric oxide assay. The levels of nitric oxide in the culture medium were determined indirectly by measuring NO^2− production with a colorimetric assay based on the Griess reaction (Rendon-Mitchell et al. 2003). NO2-concentrations were determined with reference to a standard curve generated with sodium nitrite at various dilutions.
In general terms: The Griess reaction detects nitrite, a stable product of nitric oxide.

A further experiment has as its system TNF. The experiment in a line: LPS-induced TNF release in human peripheral blood mononuclear cells (ELISA). It is filed as cell-based. As to conditions: 100 μM, FIG. 2B lower panel. The procedure: as §1, §2
(§5) TNF ELISA. The levels of TNF in the culture medium or serum were determined using commercial enzyme linked immunosorbent assay (ELISA) kits (Catalog no. MTA00, R & D Systems, Minneapolis, Minn.) with reference to standard curves of purified recombinant TNF at various dilutions as previously described (Chen et al. 2004; Rendon-Mitchell et al. 2003; Wang et al. 2006).
For orientation: An ELISA detects its analyte on a solid surface through an enzyme-linked reagent.

A further experiment relates to lethal endotoxemia. The experiment can be described thus: Lethal endotoxemia in Balb/C mice (LPS 15 mg/kg i.p.). In kind it is in vivo. The procedure: (§6) Animal models of endotoxemia and sepsis. This study was approved and performed in accordance with the guidelines for the care and use of laboratory animals at the Feinstein Institute for Medical Research, Manhasset, N.Y. Endotoxemia was induced in Balb/C mice (male, 7-8 weeks) by intraperitoneal injection of bacterial endotoxin (LPS, 15 mg/kg) as previously described (Chen et al. 2005; Wang et al. 1999; Wang et al. 2006). Sepsis was induced in male Balb/C mice (7-8 weeks, 20-25 g) or Sprague-Dawley rats (290-310 g) by cecal ligation and puncture (CLP) as previously described (Wang et al. 2006; Yang et al. 2002b). Herbal components were administered intraperitoneally into mice at indicated doses and time points, and mice were monitored for survival for up to two weeks. In parallel experiments, mice were euthanized to collect blood at 28 h (following two doses of herbal components at −0.5 and +24 h) after endotoxemia, and at 52 h (following two doses of herbal components at +24 and +48 h) after CLP.
as §3

For another experiment, the system named is lethal sepsis. The experiment in a line: Lethal sepsis induced by cecal ligation and puncture (CLP) in Balb/C mice. In kind it is in vivo. As to the method: as §6, §5, §4, §3
Tissue histology. At 48 hours after CLP, mice were euthanized in CO2 Chamber, and immediately perfused (transcardially) with phosphate buffer saline and 4% paraformaldehyde. Various tissues were harvested, sectioned, and stained with hematoxylin and eosin for morphology evaluation.

The subject of experiment [3] is HMGB1. The experiment in a line: HMGB1-induced release of TNF and nitric oxide in murine macrophage cultures. In kind it is cell-based. Conditions: concentrations up to 100 μM, preliminary data.

Where only a bound is given, the exact number is not on record here.

As to `Cc1c(S(=O)(=O)[O-])oc2c1C(=O)C(=O)c1c-2ccc2c1CCCC2(C)C.[Na+]` [TSNIIA-SS, tanshinone IIA sodium sulfonate], in the experiment on HMGB1 [1] (100 μM), the “effect on LPS-induced HMGB1 release” value is listed as “completely abrogated”. The IC50 (in general, the point on the concentration scale where inhibition reaches its midpoint) in the experiment with HMGB1 [1] (RAW 264.7 cells, 16 h after LPS, western blot, estimated, read-out: estimated IC50 for LPS-induced HMGB1 release) was less than 5 µM. The “inhibition of HMGB1 release on delayed addition” value with HMGB1 [1] (added 2 to 6 h after LPS, 25 or 50 μM, HMGB1 at 16 h) is “significant inhibition was retained”. Besides, the “effect on LPS-induced HMGB1 release” value in the experiment on HMGB1 [2] was “effectively inhibited”. In the experiment with nitric oxide, the “effect on LPS-induced release of nitric oxide” value is recorded as “did not completely block”. Further, the “effect on LPS-induced release of TNF” value in the experiment on TNF is on record as “did not completely block”. Moreover, the “circulating HMGB1 levels, endotoxemia” value in the experiment with lethal endotoxemia (LPS+vehicle 140±20 ng/ml, n=10, p<0.01) was determined as 40 ± 25 ng/mL. For the same molecule, the “animal survival, lethal endotoxemia” value in the experiment on lethal endotoxemia (repeated doses (+0.5, +24, +48, 72 hr), dose-dependent, control 20%, FIG. 6A) is listed as 80%. The “animal survival rate, lethal endotoxemia” value in the experiment on lethal endotoxemia (single dose 15 mg/kg 30 minutes after LPS, saline control 25%, P>0.05) worked out at 37.5%. Besides, in the experiment on lethal sepsis (15 mg/kg, histology 48 hours post onset of sepsis, control 2 out of 12 survivors), the “signs of hepatic necrosis” value is reported as “not observed in any of the 15 survivors”. For the same molecule, in the experiment on lethal sepsis (52 h after the onset of sepsis, vehicle 18.0±4.5 μmol/L, n=3, P>0.05), the “circulating nitric oxide levels” value came to 15.5 ± 3.3 µmol/L. For the same molecule, the “circulating TNF levels” value in the experiment on lethal sepsis (52 h after the onset of sepsis, vehicle 65+15 ng/L, P>0.05) is listed as 85+23 ng/L. For the same molecule, in the experiment with lethal sepsis (repeated administration at 24, 48, 72, 96 hours post sepsis, control 33%, P<0.05), the “animal survival rate, lethal sepsis” value is 73%. Further, the “circulating HMGB1 levels in septic mice” value with lethal sepsis (repeated administration, 52 h post CLP, FIG. 7A, P<0.05) is “dose-dependently, and significantly attenuated”. The “survival rate, lethal sepsis” value in the experiment on lethal sepsis (single i.p. dose 15 mg/kg 24 h after onset of sepsis, saline control 33%, P>0.05) was found to be 50%. Also, in the experiment on HMGB1 [3], the “attenuation of HMGB1-induced release of TNF” value is listed as 50-60% and the “attenuation of HMGB1-induced release of nitric oxide” value is listed as 90-95%.
